Reference: patent US7846959B2, “Raf modulators and methods of use” (Exelixis, Inc., priority 2004, dated 2010)
Where two headings read alike, the source gives them in different places.

Columns and labels:
c-Raf = c-Raf (Homo sapiens, UniProt P04049); assay: Luciferase-coupled chemiluminescence kinase assay (ATP consumption), c-Raf; type: biochemical
Summary of the method: (§1)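 Pre-incub. kinase […] + cpd, 30 min RT (20 mM Tris pH 7.5, 10 mM MgCl2, 0.03% TX-100, 1 mM DTT). Start w/ ATP, 3 h ambient. Luciferase-luciferin mix added and luminescence read. Total ATP use 25-60%. IC50 derived.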

B-Raf = B-Raf (Homo sapiens, UniProt P15056); assay: Luciferase-coupled chemiluminescence kinase assay (ATP consumption), B-Raf; type: biochemical
B-Raf, sequence (P15056 whole entry): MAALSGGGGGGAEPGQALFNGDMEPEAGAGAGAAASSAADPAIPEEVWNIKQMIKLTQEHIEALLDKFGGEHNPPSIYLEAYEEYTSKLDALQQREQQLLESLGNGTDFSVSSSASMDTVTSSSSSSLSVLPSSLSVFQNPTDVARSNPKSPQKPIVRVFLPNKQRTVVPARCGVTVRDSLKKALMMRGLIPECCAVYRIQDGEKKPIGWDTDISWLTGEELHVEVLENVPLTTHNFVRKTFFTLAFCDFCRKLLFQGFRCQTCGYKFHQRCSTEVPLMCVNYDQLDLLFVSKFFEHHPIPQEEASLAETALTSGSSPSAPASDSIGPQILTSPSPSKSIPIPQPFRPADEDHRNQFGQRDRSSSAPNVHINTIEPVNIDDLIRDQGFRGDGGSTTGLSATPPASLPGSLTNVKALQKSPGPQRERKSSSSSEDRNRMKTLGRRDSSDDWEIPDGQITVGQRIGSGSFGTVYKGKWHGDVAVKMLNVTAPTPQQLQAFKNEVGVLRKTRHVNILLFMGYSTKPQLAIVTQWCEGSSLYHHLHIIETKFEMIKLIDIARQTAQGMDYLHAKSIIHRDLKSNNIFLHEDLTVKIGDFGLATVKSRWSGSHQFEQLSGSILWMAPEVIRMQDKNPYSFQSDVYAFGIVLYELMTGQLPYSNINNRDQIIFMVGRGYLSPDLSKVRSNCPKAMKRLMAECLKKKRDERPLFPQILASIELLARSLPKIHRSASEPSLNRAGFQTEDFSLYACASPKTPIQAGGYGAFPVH
Summary of the method: as §1

[1] = read-out: cRaf-1 (inhibition indicated as IC50)
[2] = read-out: bRaf (inhibition indicated as IC50)

c-Raf, sequence (P04049 whole entry): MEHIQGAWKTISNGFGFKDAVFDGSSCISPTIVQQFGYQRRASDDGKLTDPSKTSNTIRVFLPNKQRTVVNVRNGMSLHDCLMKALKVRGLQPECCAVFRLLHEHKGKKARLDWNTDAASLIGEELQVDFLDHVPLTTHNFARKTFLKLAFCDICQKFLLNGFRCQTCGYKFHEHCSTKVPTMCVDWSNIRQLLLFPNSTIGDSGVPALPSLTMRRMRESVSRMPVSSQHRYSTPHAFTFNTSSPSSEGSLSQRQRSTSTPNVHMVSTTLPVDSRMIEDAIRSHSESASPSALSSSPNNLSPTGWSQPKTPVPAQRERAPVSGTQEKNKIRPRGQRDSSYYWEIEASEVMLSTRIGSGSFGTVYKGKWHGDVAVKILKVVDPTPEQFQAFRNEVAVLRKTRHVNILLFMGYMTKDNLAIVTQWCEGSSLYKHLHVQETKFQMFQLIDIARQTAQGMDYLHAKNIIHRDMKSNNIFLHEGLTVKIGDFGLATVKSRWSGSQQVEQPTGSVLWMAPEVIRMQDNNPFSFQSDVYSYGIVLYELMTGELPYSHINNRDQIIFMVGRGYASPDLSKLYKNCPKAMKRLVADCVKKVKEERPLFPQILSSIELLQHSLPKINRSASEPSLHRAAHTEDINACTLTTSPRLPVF

Structure (SMILES)	IC50 (c-Raf; [1]) [nM]	IC50 (B-Raf; [2]) [nM]	IC50 (c-Raf; read-out: cRaf-1 IC50) [nM]	IC50 (B-Raf; read-out: bRaf IC50) [nM]
C#Cc1cccc(N2C(=O)c3ccccc3C2(O)c2ccc3[nH]c(NC(=O)OC)nc3c2)c1F (stereo not drawn) [Entry 282, methyl {5-[2-(3-ethynyl-2-fluorophenyl)-1-hydroxy-3-oxo-2,3-dihydro-1H-isoindol-1-yl]-1H-benzimidazol-2-yl}carbamate]	< 100	< 100	–	–
O=C1COc2ccc(C3(O)c4ccccc4C(=O)N3c3cccc(O)c3)cc2N1 (stereo not drawn) [Entry 78, 6-[1-hydroxy-2-(3-hydroxyphenyl)-3-oxo-2,3-dihydro-1H-isoindol-1-yl]-2H-1,4-benzoxazin-3(4H)-one]	–	–	1000 to 10000	1000 to 10000
O=C1COc2ccc(C3(O)c4ccccc4C(=O)N3c3cc(Cl)cc(Cl)c3)cc2N1 (stereo not drawn) [Entry 87, 6-[2-(3,5-dichlorophenyl)-1-hydroxy-3-oxo-2,3-dihydro-1H-isoindol-1-yl]-2H-1,4-benzoxazin-3(4H)-one]	–	–	1000 to 10000	1000 to 10000
COC(=O)Nc1nc2cc(C3(O)c4ccccc4C(=O)N3CCc3ccccc3)ccc2[nH]1 (stereo not drawn) [Entry 99, methyl {5-[1-hydroxy-3-oxo-2-(2-phenylethyl)-2,3-dihydro-1H-isoindol-1-yl]-1H-benzimidazol-2-yl}carbamate]	–	–	1000 to 10000	1000 to 10000
COC(=O)Nc1nc2ccc(C3(C)c4ccccc4C(=O)N3c3cccc(Br)c3)cc2[nH]1 (stereo not drawn) [Entry 320, methyl {6-[2-(3-bromophenyl)-1-methyl-3-oxo-2,3-dihydro-1H-isoindol-1-yl]-1H-benzimidazol-2-yl}carbamate]	< 100	< 100	–	–
COC(=O)Nc1nc2cc(C3(O)c4ccccc4C(=O)N3c3cccc(Nc4ccccc4)c3)ccc2[nH]1 (stereo not drawn) [Entry 243, methyl (5-{1-hydroxy-3-oxo-2-[3-(phenylamino)phenyl]-2,3-dihydro-1H-isoindol-1-yl}-1H-benzimidazol-2-yl)carbamate]	–	–	100 to 1000	100 to 1000
COC(=O)Nc1nc2ccc(C(=O)c3ccccc3NC(=O)c3ccccc3)cc2[nH]1 [Entry 289, methyl [6-({2-[(phenylcarbonyl)amino]phenyl}carbonyl)-1H-benzimidazol-2-yl]carbamate]	1000 to 10000	1000 to 10000	–	–
COC(=O)Nc1nc2ccc(C3(O)c4c(Cl)ccc(Cl)c4C(=O)N3c3cccc(Cl)c3F)cc2[nH]1 (stereo not drawn) [Entry 349, methyl {6-[4,7-dichloro-2-(3-chloro-2-fluorophenyl)-1-hydroxy-3-oxo-2,3-dihydro-1H-isoindol-1-yl]-1H-benzimidazol-2-yl}carbamate]	1000 to 10000	1000 to 10000	–	–
O=C(Nc1nc2cc(C3(O)c4ccccc4C(=O)N3Cc3ccccc3)ccc2[nH]1)OCC1CCOC1 (stereo not drawn) [Entry 212, tetrahydrofuran-3-ylmethyl {5-[1-hydroxy-3-oxo-2-(phenylmethyl)-2,3-dihydro-1H-isoindol-1-yl]-1H-benzimidazol-2-yl}carbamate]	–	–	< 100	< 100
CN1CCN(CCCOC(=O)Nc2nc3ccc(C4(O)c5ccccc5C(=O)N4Cc4ccccc4)cc3[nH]2)CC1 (stereo not drawn) [Entry 160, 3-(4-methylpiperazin-1-yl)propyl {6-[1-hydroxy-3-oxo-2-(phenylmethyl)-2,3-dihydro-1H-isoindol-1-yl]-1H-benzimidazol-2-yl}carbamate]	–	–	< 100	< 100
O=C(Nc1nc2ccc(C3(O)c4ccccc4C(=O)N3c3ccc(F)cc3)cc2[nH]1)OCCCN1CCCCC1 (stereo not drawn) [Entry 279, 3-piperidin-1-ylpropyl {6-[2-(4-fluorophenyl)-1-hydroxy-3-oxo-2,3-dihydro-1H-isoindol-1-yl]-1H-benzimidazol-2-yl}carbamate]	< 100	100 to 1000	–	–
CN1CCN(CCCC(=O)Nc2nc3cc(C4(O)c5ccccc5C(=O)N4Cc4ccccc4)ccc3[nH]2)CC1 (stereo not drawn) [Entry 264, N-{5-[1-hydroxy-3-oxo-2-(phenylmethyl)-2,3-dihydro-1H-isoindol-1-yl]-1H-benzimidazol-2-yl}-4-(4-methylpiperazin-1-yl)butanamide]	–	–	< 100	< 100
O=C1c2ccccc2C(O)(c2ccc3[nH]c(Nc4ncccn4)nc3c2)N1c1cccc(Cl)c1F (stereo not drawn) [Entry 354, 2-(3-chloro-2-fluorophenyl)-3-hydroxy-3-[2-(pyrimidin-2-ylamino)-1H-benzimidazol-5-yl]-2,3-dihydro-1H-isoindol-1-one]	< 100	< 100	–	–
COC(=O)Nc1nc2cc(C3(O)c4ccccc4C(=O)N3Cc3cccs3)ccc2[nH]1 (stereo not drawn) [Entry 98, methyl {5-[1-hydroxy-3-oxo-2-(2-thienylmethyl)-2,3-dihydro-1H-isoindol-1-yl]-1H-benzimidazol-2-yl}carbamate]	–	–	< 100	< 100
COC(=O)Nc1nc2cc(C3(O)c4ccccc4C(=O)N3c3cccc(Cl)c3F)ccc2[nH]1 (stereo not drawn) [Entry 224, methyl {5-[2-(3-chloro-2-fluorophenyl)-1-hydroxy-3-oxo-2,3-dihydro-1H-isoindol-1-yl]-1H-benzimidazol-2-yl}carbamate]	–	–	< 100	< 100
COC(=O)Nc1nc2cc(C3(O)c4ccccc4C(=O)N3c3cccc(NC(C)=O)c3)ccc2[nH]1 (stereo not drawn) [Entry 231, methyl (5-{2-[3-(acetylamino)phenyl]-1-hydroxy-3-oxo-2,3-dihydro-1H-isoindol-1-yl}-1H-benzimidazol-2-yl)carbamate]	–	–	< 100	< 100
Cc1cccc(N2C(=O)c3ccccc3C2(O)c2ccc3c(c2)NC(=O)CO3)c1 (stereo not drawn) [Entry 44, 6-[1-hydroxy-2-(3-methylphenyl)-3-oxo-2,3-dihydro-1H-isoindol-1-yl]-2H-1,4-benzoxazin-3(4H)-one]	–	–	100 to 1000	100 to 1000
C=CCCOC(=O)Nc1nc2cc(C3(O)c4ccccc4C(=O)N3Cc3ccccc3)ccc2[nH]1 (stereo not drawn) [Entry 195, but-3-en-1-yl {5-[1-hydroxy-3-oxo-2-(phenylmethyl)-2,3-dihydro-1H-isoindol-1-yl]-1H-benzimidazol-2-yl}carbamate]	–	–	< 100	< 100
COC(=O)Nc1nc2cc(C3(O)c4ccccc4C(=O)N3C(C)c3cc(Br)cs3)ccc2[nH]1 (stereo not drawn) [Entry 210, methyl (5-{2-[1-(4-bromo-2-thienyl)ethyl]-1-hydroxy-3-oxo-2,3-dihydro-1H-isoindol-1-yl}-1H-benzimidazol-2-yl)carbamate]	–	–	< 100	< 100
COC(=O)Nc1nc2cc(C3(O)c4ccccc4C(=O)N3c3cc(Cl)ccc3OC)ccc2[nH]1 (stereo not drawn) [Entry 310, methyl (5-{2-[5-chloro-2-(methyloxy)phenyl]-1-hydroxy-3-oxo-2,3-dihydro-1H-isoindol-1-yl}-1H-benzimidazol-2-yl)carbamate]	< 100	< 100	–	–
COC(=O)Nc1nc2cc(C3(O)c4ccccc4C(=O)N3c3cc(F)cc(Cl)c3)ccc2[nH]1 (stereo not drawn) [Entry 239, methyl {5-[2-(3-chloro-5-fluorophenyl)-1-hydroxy-3-oxo-2,3-dihydro-1H-isoindol-1-yl]-1H-benzimidazol-2-yl}carbamate]	–	–	< 100	< 100
COC(=O)Nc1nc2cc(C3(O)c4ccccc4C(=O)N3CC3CCCC3)ccc2[nH]1 (stereo not drawn) [Entry 189, methyl {5-[2-(cyclopentylmethyl)-1-hydroxy-3-oxo-2,3-dihydro-1H-isoindol-1-yl]-1H-benzimidazol-2-yl}carbamate]	–	–	< 100	< 100
C#CCCC(=O)Nc1nc2ccc(C(=O)c3ccccc3C(=O)Nc3ccc(F)cc3)cc2[nH]1 [Entry 276, N-(4-fluorophenyl)-2-{[2-(pent-4-ynoylamino)-1H-benzimidazol-6-yl]carbonyl}benzamide]	< 100	< 100	–	–
COC(=O)Nc1nc2cc(C3(O)c4ccccc4C(=O)N3CC3CC3)ccc2[nH]1 (stereo not drawn) [Entry 153, methyl {5-[2-(cyclopropylmethyl)-1-hydroxy-3-oxo-2,3-dihydro-1H-isoindol-1-yl]-1H-benzimidazol-2-yl}carbamate]	–	–	100 to 1000	100 to 1000
CN(CCOC(=O)Nc1nc2cc(C3(O)c4ccccc4C(=O)N3c3cccc(Cl)c3F)ccc2[nH]1)Cc1ccccc1 (stereo not drawn) [Entry 297, 2-[methyl(phenylmethyl)amino]ethyl {5-[2-(3-chloro-2-fluorophenyl)-1-hydroxy-3-oxo-2,3-dihydro-1H-isoindol-1-yl]-1H-benzimidazol-2-yl}carbamate]	< 100	< 100	–	–
COC(=O)Nc1nc2cc(C3(O)c4ccccc4C(=O)N3c3ccccc3OC)ccc2[nH]1 (stereo not drawn) [Entry 145, methyl (5-{1-hydroxy-2-[2-(methyloxy)phenyl]-3-oxo-2,3-dihydro-1H-isoindol-1-yl}-1H-benzimidazol-2-yl)carbamate]	–	–	< 100	< 100
COCCOC(=O)Nc1nc2cc(C3(O)c4ccccc4C(=O)N3Cc3ccccc3)ccc2[nH]1 (stereo not drawn) [Entry 106, 2-(methyloxy)ethyl {5-[1-hydroxy-3-oxo-2-(phenylmethyl)-2,3-dihydro-1H-isoindol-1-yl]-1H-benzimidazol-2-yl}carbamate]	–	–	< 100	< 100
CCN(c1ccccc1)c1cccc(N2C(=O)c3ccccc3C2(O)c2ccc3[nH]c(NC(=O)OC)nc3c2)c1 (stereo not drawn) [Entry 328, methyl [5-(2-{3-[ethyl(phenyl)amino]phenyl}-1-hydroxy-3-oxo-2,3-dihydro-1H-isoindol-1-yl)-1H-benzimidazol-2-yl]carbamate]	100 to 1000	100 to 1000	–	–
COC(=O)Nc1nc2cc(C3(O)c4ccccc4C(=O)N3c3ccc(F)c(F)c3)ccc2[nH]1 (stereo not drawn) [Entry 164, methyl {5-[2-(3,4-difluorophenyl)-1-hydroxy-3-oxo-2,3-dihydro-1H-isoindol-1-yl]-1H-benzimidazol-2-yl}carbamate]	–	–	< 100	< 100
O=C1COc2ccc(C3(O)c4ccccc4C(=O)N3C3CCNCC3)cc2N1 (stereo not drawn) [Entry 88, 6-(1-hydroxy-3-oxo-2-piperidin-4-yl-2,3-dihydro-1H-isoindol-1-yl)-2H-1,4-benzoxazin-3(4H)-one]	–	–	≥ 10000	≥ 10000
